Molecular target: neuraminidase of Oseltamivir resistant virus of A/Vladivostok/16/09 (H1N1) influenza (Influenza A virus, UniProt C3W5S3)

SMILES | more active than A2 by factor | more active than A4 by factor
CCC(CC)O[C@@H]1C=C(C(=O)O)C[C@H](NC(=N)N)[C@H]1NC(=O)C(F)F [1.4, (3R,4R,5S)-5-guanidino-4-difluoroacetamido-3-(pentan-3-yloxy)cyclohex-1-enecarboxylic acid] | 118 | 140
CCC(CC)O[C@@H]1C=C(C(=O)O)C[C@H](NC(=N)N)[C@H]1NC(=O)CF [1.1, (3R,4R,5S)-5-guanidino-4-fluoroacetamido-3-(pentan-3-yloxy)cyclohex-1-enecarboxylic acid] | 207 | 250

Reference: patent US8895613B2 (priority 2013, dated 2014)
